Laboratory results taken from the NIST ThermoML archive (doi:10.1021/je5010214).

Conditions: Liquid, Vibrating tube method

CC(C)CO [2-methyl-1-propanol]
Conditions	mass density [kg/m3]
283.15 K, 89.4 kPa	809.726
283.15 K, 478.2 kPa	810.123
283.15 K, 489.9 kPa	810.142
283.15 K, 930.2 kPa	810.437
283.15 K, 1027.3 kPa	810.557
283.15 K, 2172.1 kPa	811.348
283.15 K, 2992.9 kPa	811.865
283.15 K, 4993.8 kPa	813.245
283.15 K, 6906.9 kPa	814.669
283.15 K, 8995.7 kPa	816.167
283.15 K, 10003 kPa	816.885
283.15 K, 12183 kPa	818.287
283.15 K, 14910 kPa	820.439
283.15 K, 17915 kPa	822.056
283.15 K, 20110 kPa	823.875
283.15 K, 22168 kPa	825.177
283.15 K, 24886 kPa	826.625
283.15 K, 27713 kPa	828.29
283.15 K, 30148 kPa	829.717
283.15 K, 32117 kPa	830.745
283.15 K, 33086 kPa	831.522
283.15 K, 33288 kPa	831.507
283.15 K, 34077 kPa	832.073
283.15 K, 35107 kPa	832.469
283.15 K, 38030 kPa	834.322
283.15 K, 44591 kPa	837.752
283.15 K, 54994 kPa	843.308
283.15 K, 57756 kPa	844.723
283.15 K, 59886 kPa	845.575
283.15 K, 61822 kPa	846.524
283.15 K, 64894 kPa	848.158
283.16 K, 289.9 kPa	810.056
283.16 K, 39967 kPa	835.34
283.16 K, 41406 kPa	835.909
283.16 K, 48034 kPa	839.7
283.16 K, 49830 kPa	840.462
283.16 K, 51952 kPa	841.796
283.16 K, 66072 kPa	848.566
288.15 K, 85.3 kPa	806.159
288.15 K, 351.1 kPa	806.381
288.15 K, 718.6 kPa	806.519
288.15 K, 928.3 kPa	806.632
288.15 K, 1132.3 kPa	807.006
288.15 K, 1931.6 kPa	807.42
288.15 K, 3433.9 kPa	808.429
288.15 K, 5023.9 kPa	809.62
288.15 K, 6893.9 kPa	810.983
288.15 K, 8406.4 kPa	812.175
288.15 K, 12498 kPa	814.345
288.15 K, 13061 kPa	815.035
288.15 K, 15159 kPa	815.414
288.15 K, 16159 kPa	816.818
288.15 K, 17078 kPa	817.715
288.15 K, 19062 kPa	818.283
288.15 K, 20120 kPa	819.399
288.15 K, 21983 kPa	820.3
288.15 K, 22948 kPa	821.319
288.15 K, 24955 kPa	821.837
288.15 K, 31002 kPa	825.774
288.15 K, 36056 kPa	828.477
288.15 K, 38602 kPa	829.859
288.15 K, 40698 kPa	831.363
288.15 K, 42984 kPa	832.313
288.15 K, 44991 kPa	833.694
288.15 K, 46862 kPa	834.848
288.15 K, 49740 kPa	835.692
288.15 K, 53748 kPa	837.321
288.15 K, 55203 kPa	839.369
288.15 K, 60810 kPa	841.135
288.15 K, 65611 kPa	844.144
288.16 K, 549.3 kPa	806.494
288.16 K, 9959.1 kPa	813.184
288.16 K, 27092 kPa	823.174
288.16 K, 29078 kPa	824.509
288.16 K, 33729 kPa	826.936
288.16 K, 57016 kPa	840.129
288.16 K, 62338 kPa	843.086
293.15 K, 63.4 kPa	802.054
293.15 K, 194.5 kPa	802.316
293.15 K, 662.6 kPa	802.599
293.15 K, 5367.8 kPa	806.019
293.15 K, 5979.3 kPa	806.327
293.15 K, 8031.4 kPa	807.842
293.15 K, 12279 kPa	811.587
293.15 K, 16110 kPa	814.191
293.15 K, 18001 kPa	815.385
293.15 K, 30253 kPa	822.999
293.15 K, 32967 kPa	824.811
293.15 K, 42984 kPa	830.218
293.15 K, 44913 kPa	831.278
293.15 K, 47933 kPa	833.008
293.15 K, 50078 kPa	834.047
293.16 K, 310.4 kPa	802.406
293.16 K, 463.5 kPa	802.612
293.16 K, 1059.7 kPa	802.921
293.16 K, 2037.1 kPa	803.747
293.16 K, 2922 kPa	804.089
293.16 K, 3431.5 kPa	804.593
293.16 K, 5298.8 kPa	805.894
293.16 K, 7111.4 kPa	807.238
293.16 K, 9968.5 kPa	809.474
293.16 K, 14057 kPa	812.743
293.16 K, 20853 kPa	817.066
293.16 K, 22118 kPa	818.157
293.16 K, 24057 kPa	819.188
293.16 K, 25922 kPa	820.412
293.16 K, 27187 kPa	821.228
293.16 K, 34602 kPa	825.683
293.16 K, 38051 kPa	827.567
293.16 K, 40103 kPa	828.763
293.16 K, 52135 kPa	835.387
293.16 K, 55036 kPa	836.79
293.16 K, 58004 kPa	838.271
293.16 K, 60107 kPa	839.502
293.16 K, 62061 kPa	840.325
293.16 K, 66037 kPa	842.335
298.15 K, 122.4 kPa	798.281
298.15 K, 162.6 kPa	798.371
298.15 K, 405.5 kPa	798.562
298.15 K, 632.8 kPa	798.678
298.15 K, 956.4 kPa	798.832
298.15 K, 6988.8 kPa	803.491
298.15 K, 14555 kPa	809.311
298.15 K, 18284 kPa	812.068
298.15 K, 20164 kPa	813.104
298.15 K, 22781 kPa	814.894
298.15 K, 25076 kPa	816.275
298.15 K, 27604 kPa	817.904
298.15 K, 30046 kPa	819.519
298.15 K, 32326 kPa	821.055
298.15 K, 33317 kPa	821.248
298.15 K, 44911 kPa	827.946
298.15 K, 60006 kPa	836.063
298.15 K, 62079 kPa	837.121
298.15 K, 65330 kPa	838.566
298.15 K, 66093 kPa	839.052
298.16 K, 1152.2 kPa	799.011
298.16 K, 2046.3 kPa	799.798
298.16 K, 3021.1 kPa	800.42
298.16 K, 5107.4 kPa	801.927
298.16 K, 9044.3 kPa	804.777
298.16 K, 9996.8 kPa	805.681
298.16 K, 11947 kPa	807.14
298.16 K, 33072 kPa	821.357
298.16 K, 34997 kPa	822.338
298.16 K, 37948 kPa	823.936
298.16 K, 39972 kPa	825.207
298.16 K, 41983 kPa	826.345
298.16 K, 48045 kPa	829.528
298.16 K, 49997 kPa	830.783
298.16 K, 52020 kPa	832.399
298.16 K, 54851 kPa	833.381
298.16 K, 57898 kPa	835.245
303.15 K, 50.6 kPa	793.736
303.15 K, 974.4 kPa	794.496
303.15 K, 1922.5 kPa	795.367
303.15 K, 9012.3 kPa	801.25
303.15 K, 10062 kPa	802.346
303.15 K, 14908 kPa	805.823
303.15 K, 18109 kPa	808.133
